{"source": "patent US20250282828A1", "about": "“PEPTIDES FOR THE TREATMENT OF RESPIRATORY INFECTIONS OF VIRAL ORIGIN” (CENTRO DE INGENIERÍA GENÉTICA Y BIOTECNOLOGÍA, priority 2020, published 2025)", "key": {"[1]": {"target": "receptor binding-domain of the viral S protein (RBD) (Severe acute respiratory syndrome coronavirus 2, UniProt P0DTC2)", "assay": "BIACORE surface plasmon resonance interaction with immobilized peptide", "set-up": "species or system SARS-CoV-2"}, "AdV 7 Gomen strain": {"test_system": "AdV 7 Gomen strain", "assay": "Adenovirus type 7 replication in bronchial HAE (qPCR)", "type": "cell-based", "conditions": "50 μM, 24 hours"}, "[2]": {"test_system": "vimentin intermediate filaments", "assay": "Immunodetection of vimentin intermediate filaments in VeroE6 cells", "type": "cell-based, African green monkey", "conditions": "100 μM, 24 hours", "protocol": "(§1) They were then fixed and permeabilized in a solution of acetone:methanol (1:1 V/V) for 10 min at −20° C. and blocked with 1% bovine serum albumin in phosphate buffered saline for 30 min, at 37° C. Vimentin intermediate filaments were detected using a murine anti-vimentin IgG1 monoclonal antibody (4.5 μg/mL) followed by an anti-mouse antibody conjugated to fluorescein isothiocyanate (1/200). Vimentin intermediate filaments (FI) were observed distributed throughout the cytoplasm, from the perinuclear region towards one or both poles of the cell."}, "SARS-CoV-2": {"test_system": "SARS-CoV-2", "conditions": "96 h, 50 μM"}, "[3]": {"test_system": "capsid protein of the Influenza H1N1 virus", "assay": "BIACORE surface plasmon resonance interaction with immobilized peptide", "type": "binding"}, "[4]": {"test_system": "Parainfluenza virus type 3 (HPIV3)", "type": "cell-based", "conditions": "50 μM; HAE, 3 days"}, "in vitro": {"assay": "in vitro", "conditions": "pig, PK15 cells"}, "[5]": {"test_system": "respiratory syncytial virus (RSV)", "assay": "Respiratory syncytial virus replication in bronchial HAE (RT-qPCR)", "type": "cell-based", "conditions": "50 μM, 10 days"}, "NS1-D2 (Dengue)": {"target": "T1, NS1-D2 (Dengue) (Dengue virus type 2, UniProt P29990)", "T1 construct": "the non-structural protein 1 of the Dengue virus 2 (NS1-D2)", "T1 sequence (P29990 776-1127 limits assumed)": "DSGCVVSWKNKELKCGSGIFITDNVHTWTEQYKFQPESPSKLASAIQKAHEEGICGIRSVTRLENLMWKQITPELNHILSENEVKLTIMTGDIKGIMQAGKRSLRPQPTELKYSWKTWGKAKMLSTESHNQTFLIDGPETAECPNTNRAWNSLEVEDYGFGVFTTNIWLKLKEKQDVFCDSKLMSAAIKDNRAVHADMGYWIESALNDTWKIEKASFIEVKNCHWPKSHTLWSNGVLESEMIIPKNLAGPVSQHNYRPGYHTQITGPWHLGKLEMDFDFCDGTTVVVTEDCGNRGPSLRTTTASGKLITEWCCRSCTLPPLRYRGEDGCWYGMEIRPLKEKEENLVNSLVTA", "assay": "BIACORE surface plasmon resonance interaction with immobilized peptide", "type": "binding, Dengue virus 2"}, "Protein N (SARS-CoV-2)": {"target": "Protein N (SARS-CoV-2) (Severe acute respiratory syndrome coronavirus 2, UniProt P0DTC9)", "assay": "BIACORE surface plasmon resonance interaction with immobilized peptide", "type": "binding"}, "[6]": {"test_system": "CSF virus Margarita strain", "conditions": "72 h"}, "p24 (HIV)": {"target": "p24 (HIV) (Human immunodeficiency virus type 1 group M subtype B, UniProt P04591)", "assay": "BIACORE surface plasmon resonance interaction with immobilized peptide", "type": "binding, HIV-1"}, "ZIKV E protein (Zika)": {"target": "T2, ZIKV E protein (Zika) (Zika virus, UniProt A0A024B7W1)", "T2 construct": "the envelope protein of the Zika virus (ZIKV E)", "T2 sequence (A0A024B7W1 291-794)": "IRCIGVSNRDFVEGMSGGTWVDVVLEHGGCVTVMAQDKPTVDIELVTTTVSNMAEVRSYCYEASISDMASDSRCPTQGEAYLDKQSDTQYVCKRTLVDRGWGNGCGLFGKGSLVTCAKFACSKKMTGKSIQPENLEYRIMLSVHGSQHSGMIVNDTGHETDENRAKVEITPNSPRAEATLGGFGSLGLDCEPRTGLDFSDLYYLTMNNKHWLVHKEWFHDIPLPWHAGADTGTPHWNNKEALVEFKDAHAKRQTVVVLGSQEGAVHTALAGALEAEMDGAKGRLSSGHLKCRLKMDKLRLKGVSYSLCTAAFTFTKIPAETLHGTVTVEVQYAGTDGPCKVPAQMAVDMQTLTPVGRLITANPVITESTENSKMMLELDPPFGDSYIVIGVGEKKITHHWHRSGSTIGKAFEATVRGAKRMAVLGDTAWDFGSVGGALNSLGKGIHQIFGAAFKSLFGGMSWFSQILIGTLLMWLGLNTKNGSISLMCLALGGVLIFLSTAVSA", "assay": "BIACORE surface plasmon resonance interaction with immobilized peptide", "type": "binding"}, "[7]": {"target": "T3, extracellular domain of the ACE2 receptor (Homo sapiens, UniProt Q9BYF1)", "T3 construct": "the extracellular domain of the ACE2 receptor", "T3 sequence (Q9BYF1 18-740)": "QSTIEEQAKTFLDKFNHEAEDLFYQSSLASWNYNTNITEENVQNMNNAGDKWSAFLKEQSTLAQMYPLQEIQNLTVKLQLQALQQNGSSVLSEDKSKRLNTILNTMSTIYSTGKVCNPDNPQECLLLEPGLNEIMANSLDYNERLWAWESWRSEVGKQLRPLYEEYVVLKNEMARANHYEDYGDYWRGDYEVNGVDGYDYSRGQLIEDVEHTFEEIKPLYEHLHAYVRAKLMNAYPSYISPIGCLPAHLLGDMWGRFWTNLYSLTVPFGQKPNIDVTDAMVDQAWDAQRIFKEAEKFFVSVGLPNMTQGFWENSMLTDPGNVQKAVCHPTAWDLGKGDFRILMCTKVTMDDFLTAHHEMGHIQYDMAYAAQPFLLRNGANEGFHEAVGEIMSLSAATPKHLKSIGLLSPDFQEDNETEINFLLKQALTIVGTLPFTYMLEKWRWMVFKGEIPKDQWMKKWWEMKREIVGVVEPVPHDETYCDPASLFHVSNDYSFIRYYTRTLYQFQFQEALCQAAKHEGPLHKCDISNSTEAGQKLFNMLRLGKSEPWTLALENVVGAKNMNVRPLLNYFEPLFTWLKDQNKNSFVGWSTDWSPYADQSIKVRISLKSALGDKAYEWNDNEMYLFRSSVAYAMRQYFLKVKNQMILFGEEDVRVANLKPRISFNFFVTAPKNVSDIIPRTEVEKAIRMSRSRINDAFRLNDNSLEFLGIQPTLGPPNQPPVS", "assay": "BIACORE surface plasmon resonance interaction with immobilized peptide", "type": "binding"}, "[8]": {"test_system": "vimentin intermediate filaments", "assay": "Immunodetection of vimentin intermediate filaments in MDBK cells", "type": "cell-based, bovine", "conditions": "100 μM, 24 hours", "protocol": "as §1"}}, "note": "No end group written: not given here.", "data": [{"sequence": "RVTQMNLNDRLASLYDKV [SEQ ID NO: 1]", "values": [{"measurement": "interaction", "setting": "[1]", "value": "neither the RBD nor the ACE2 peptide interact"}, {"measurement": "Adenovirus Ad7 Inhib. %", "setting": "AdV 7 Gomen strain", "value": 68, "unit": "%"}, {"measurement": "damage to cell integrity after treatment", "setting": "[2]", "value": "no damage to cell integrity was observed"}, {"measurement": "Inhibition %", "setting": "SARS-CoV-2", "value": 83.3, "unit": "%"}, {"measurement": "Kd", "setting": "[3]", "value": 769, "unit": "nM"}, {"measurement": "interaction", "setting": "[3]", "value": "showed interaction"}, {"measurement": "Parainfluenza Type 3 Inhib. %", "setting": "[4]", "value": 79, "unit": "%"}, {"measurement": "CC50 at 96 h", "setting": "in vitro", "value": "> 400000", "unit": "nM"}, {"measurement": "Sincitial respiratory virus Inhib. %", "setting": "[5]", "value": 80, "unit": "%"}, {"measurement": "Kd", "setting": "NS1-D2 (Dengue)", "value": 769, "unit": "nM"}, {"measurement": "Rmax", "setting": "NS1-D2 (Dengue)", "value": 1.86, "unit": "RU"}, {"measurement": "interaction", "setting": "NS1-D2 (Dengue)", "value": "showed interaction"}, {"measurement": "kd", "setting": "NS1-D2 (Dengue)", "value": "1.02e-05", "unit": "s⁻¹"}, {"measurement": "kon", "setting": "NS1-D2 (Dengue); read-out: ka", "value": 13.3, "unit": "M⁻¹ s⁻¹"}, {"measurement": "interaction (signal RU)", "setting": "Protein N (SARS-CoV-2); 10-200 nM", "value": "significant increase in signal"}, {"measurement": "Kd", "setting": "Protein N (SARS-CoV-2); analyte 10-200 nM", "value": 3.58, "unit": "nM"}, {"measurement": "kd", "setting": "Protein N (SARS-CoV-2); analyte 10-200 nM", "value": 0.000972, "unit": "s⁻¹"}, {"measurement": "Rmax", "setting": "Protein N (SARS-CoV-2); analyte 10-200 nM, biotinylated peptide on SA chip", "value": 329, "unit": "RU"}, {"measurement": "kon", "setting": "Protein N (SARS-CoV-2); analyte 10-200 nM, read-out: ka", "value": 271000, "unit": "M⁻¹ s⁻¹"}, {"measurement": "IC50", "setting": "[6]", "value": 300, "unit": "nM"}, {"measurement": "interaction", "setting": "p24 (HIV)", "value": "absence of interaction"}, {"measurement": "Kd", "setting": "ZIKV E protein (Zika)", "value": 1590, "unit": "nM"}, {"measurement": "Rmax", "setting": "ZIKV E protein (Zika)", "value": "2.11 × 10^4 RU"}, {"measurement": "interaction", "setting": "ZIKV E protein (Zika)", "value": "showed interaction"}, {"measurement": "kd", "setting": "ZIKV E protein (Zika)", "value": 0.00154, "unit": "s⁻¹"}, {"measurement": "kon", "setting": "ZIKV E protein (Zika); read-out: ka", "value": 965, "unit": "M⁻¹ s⁻¹"}, {"measurement": "interaction", "setting": "[7]", "value": "neither the RBD nor the ACE2 peptide interact"}, {"measurement": "damage to cell integrity after treatment", "setting": "[8]", "value": "no damage to cell integrity was observed"}]}]}
